From patent US5789431A, “Naphthoquinone antitumor compound and method” (The University of North Carolina at Chapel Hill, priority 1996, dated 1998)

What was measured:
human tumor cell lines = type: cell-based; conditions: cancer cell line panel
MALME-3M = experiment: in vitro melanoma cell growth inhibition (NCI screen)
M19-MEL = experiment: as above
SK-MEL-2 = experiment: as above
UACC-257 = experiment: as above
UACC-62 = experiment: as above
SF-268 = experiment: in vitro CNS cancer cell growth inhibition (NCI screen)
SF-295 = experiment: as above
SF-539 = experiment: as above
SNB-19 = experiment: as above
SNB-75 = experiment: as above
U 251 = experiment: as above
DLD-1 = experiment: in vitro colon cancer cell growth inhibition (NCI screen)
HCT-15 = experiment: as above
786-0 = experiment: in vitro renal cancer cell growth inhibition (NCI screen)
RXF-393 = experiment: as above
OVCAR-3 = experiment: in vitro ovarian cancer cell growth inhibition (NCI screen)
HOP-62 = experiment: in vitro non-small cell lung cancer cell growth inhibition (NCI screen)
HOP-92 = experiment: as above
NCI-H522 = experiment: as above
LOX1MVI = experiment: in vitro melanoma cell growth inhibition (NCI screen)
M14 = experiment: as above
CCRF-CEM = experiment: in vitro leukemia cell growth inhibition (NCI screen)
HL-60(TB) = experiment: as above
K-562 = experiment: as above
MOLT-4 = experiment: as above
RPMI-8226 = experiment: as above
XF-498 = experiment: in vitro CNS cancer cell growth inhibition (NCI screen)
SW 620 = experiment: in vitro colon cancer cell growth inhibition (NCI screen)
CAKI-1 = experiment: in vitro renal cancer cell growth inhibition (NCI screen)
HOP-18 = experiment: in vitro non-small cell lung cancer cell growth inhibition (NCI screen)
NCI-H266 = experiment: as above
LXFL 529 = experiment: as above
SK-MEL-5 = experiment: in vitro melanoma cell growth inhibition (NCI screen)
COLO-205 = experiment: in vitro colon cancer cell growth inhibition (NCI screen)
HCT-116 = experiment: as above
ACHN = experiment: in vitro renal cancer cell growth inhibition (NCI screen)
RXF-631 = experiment: as above
UO-31 = experiment: as above
OVCAR-4 = experiment: in vitro ovarian cancer cell growth inhibition (NCI screen); conditions: OVACR-4
NCI-H23 = experiment: in vitro non-small cell lung cancer cell growth inhibition (NCI screen)
SK-MEL-28 = experiment: in vitro melanoma cell growth inhibition (NCI screen)
KM 12 = experiment: in vitro colon cancer cell growth inhibition (NCI screen)
SN12C = experiment: in vitro renal cancer cell growth inhibition (NCI screen)
TK-10 = experiment: as above
MDA-N = experiment: in vitro breast cancer cell growth inhibition (NCI screen)
PC-3 = experiment: in vitro prostate cancer cell growth inhibition (NCI screen)
EKVX = experiment: in vitro non-small cell lung cancer cell growth inhibition (NCI screen)
MCF-7 = experiment: in vitro breast cancer cell growth inhibition (NCI screen)
SR = experiment: in vitro leukemia cell growth inhibition (NCI screen)
NCI-H460 = experiment: in vitro non-small cell lung cancer cell growth inhibition (NCI screen)

| Compound | cytotoxicity log GI50 (MALME-3M) [M] | cytotoxicity log GI50 (M19-MEL) [M] | cytotoxicity log GI50 (SK-MEL-2) [M] | cytotoxicity log GI50 (UACC-257) [M] | cytotoxicity log GI50 (UACC-62) [M] | cytotoxicity log GI50 (SF-539) [M] | cytotoxicity log GI50 (SNB-75) [M] | cytotoxicity log GI50 (DLD-1) [M] | cytotoxicity log GI50 (RXF-393) [M] | cytotoxicity log GI50 (OVCAR-3) [M] | cytotoxicity log GI50 (HOP-92) [M] | cytotoxicity log GI50 (NCI-H522) [M] | cytotoxicity log GI50 (CCRF-CEM) [M] | cytotoxicity log GI50 (HL-60(TB)) [M] | cytotoxicity log GI50 (MOLT-4) [M] | cytotoxicity log GI50 (RPMI-8226) [M] | cytotoxicity log GI50 (HCT-116) [M] | cytotoxicity log GI50 (RXF-631) [M] | cytotoxicity log GI50 (OVCAR-4) [M] | further results |
| --- | --- | --- | --- | --- | --- | --- | --- | --- | --- | --- | --- | --- | --- | --- | --- | --- | --- | --- | --- | --- |
| NC1=C(NC(=O)Cc2ccccc2F)C(=O)c2ccccc2C1=O [Compound 3b] | -4.87 | -5.35 | -4.84 | -4.53 | -4.42 | -4.57 | -4.73 | -4.78 | -4.46 | -5.08 | -4.65 | -4.67 | – | – | – | – | – | – | – | cytotoxicity against tumor cells (in words) (human tumor cell lines): inactive against all representative cancer cell lines; cytotoxicity log GI50 (SF-268): -4.46 M; cytotoxicity log GI50 (SF-295): -4.49 M; cytotoxicity log GI50 (SNB-19): -4.45 M; cytotoxicity log GI50 (U 251): -4.44 M; cytotoxicity log GI50 (HCT-15): -4.62 M; cytotoxicity log GI50 (786-0): -4.57 M; cytotoxicity log GI50 (HOP-62): -4.59 M |
| CC(=O)NC1=C(NC(C)(C)C)C(=O)c2ccccc2C1=O [Compound 32] | – | -4.81 | – | -4.80 | -4.86 | -4.80 | -4.86 | -4.80 | – | -4.81 | – | – | -5.63 | -5.65 | -5.19 | -4.93 | – | – | – | cytotoxicity log GI50 (LOX1MVI): -4.78 M; cytotoxicity log GI50 (M14): -4.77 M; cytotoxicity log GI50 (K-562): -5.14 M; cytotoxicity log GI50 (XF-498): -4.95 M; cytotoxicity log GI50 (HCT-15): -4.76 M; cytotoxicity log GI50 (SW 620): -4.85 M; cytotoxicity log GI50 (786-0): -5.47 M; cytotoxicity log GI50 (CAKI-1): -4.79 M; cytotoxicity log GI50 (HOP-18): -4.83 M; cytotoxicity log GI50 (NCI-H266): -4.84 M; cytotoxicity log GI50 (LXFL 529): -4.82 M |
| COc1ccc(CNC2=C(NC(C)=O)C(=O)c3ccccc3C2=O)cc1 [Compound 41] | -5.08 | -5.02 | -5.04 | -5.06 | -5.11 | -5.13 | – | -5.07 | – | -5.09 | -5.18 | -5.86 | -5.06 | -5.77 | -5.43 | – | -5.29 | -5.19 | -5.09 | cytotoxicity log GI50 (LOX1MVI): -5.07 M; cytotoxicity log GI50 (SK-MEL-5): -5.13 M; cytotoxicity log GI50 (K-562): -5.11 M; cytotoxicity log GI50 (COLO-205): -5.03 M; cytotoxicity log GI50 (SW 620): -5.09 M; cytotoxicity log GI50 (ACHN): -5.68 M; cytotoxicity log GI50 (UO-31): -5.02 M; cytotoxicity log GI50 (NCI-H23): -5.17 M |
| CCNC1=C(NC(=O)CCl)C(=O)c2ccccc2C1=O [Compound 44] | – | – | – | – | – | – | – | – | -4.78 | -4.75 | – | -4.82 | – | – | – | – | -4.74 | – | -4.77 | cytotoxicity log GI50 (SK-MEL-28): -4.75 M; cytotoxicity log GI50 (SK-MEL-5): -4.78 M; cytotoxicity log GI50 (KM 12): -4.77 M; cytotoxicity log GI50 (SN12C): -4.75 M; cytotoxicity log GI50 (TK-10): -4.75 M; cytotoxicity log GI50 (MDA-N): -4.81 M; cytotoxicity log GI50 (PC-3): -4.80 M; cytotoxicity log GI50 (EKVX): -4.80 M; cytotoxicity log GI50 (HOP-62): -4.78 M |
| O=C(O)CCCc1nc2c(n1Cc1ccccc1)C(=O)c1ccccc1C2=O [Compound 57] | -4.80 | – | -4.83 | -4.60 | -4.76 | – | – | – | – | -4.67 | – | -4.53 | -5.28 | -4.54 | – | -4.73 | -4.54 | – | -4.69 | cytotoxicity log GI50 (M14): -5.43 M; cytotoxicity log GI50 (SF-268): -4.58 M; cytotoxicity log GI50 (SF-295): -4.59 M; cytotoxicity log GI50 (MCF-7): -4.53 M; cytotoxicity log GI50 (MDA-N): -4.65 M; cytotoxicity log GI50 (EKVX): -4.50 M; cytotoxicity log GI50 (NCI-H23): -4.50 M |
| CCC(c1ccc(F)cc1)c1nc2c(n1CC)C(=O)c1ccccc1C2=O (stereo not drawn) [Compound 65] | – | – | -4.77 | – | -4.95 | – | – | -5.69 | -4.83 | – | -4.75 | – | – | -4.74 | -4.73 | -4.68 | – | -4.71 | – | cytotoxicity log GI50 (SR): -4.73 M; cytotoxicity log GI50 (U 251): -4.71 M; cytotoxicity log GI50 (XF-498): -4.70 M; cytotoxicity log GI50 (SN12C): -4.90 M; cytotoxicity log GI50 (NCI-H266): -4.82 M |
| CCn1c(Cc2ccc(F)cc2)nc2c1C(=O)c1ccccc1C2=O [Compound 66] | -4.94 | -5.02 | – | -5.10 | – | -4.88 | -4.80 | – | – | – | -4.97 | -5.06 | -5.08 | -5.33 | – | -4.94 | – | -4.82 | – | cytotoxicity log GI50 (ACHN): -4.85 M; cytotoxicity log GI50 (UO-31): -5.33 M; cytotoxicity log GI50 (NCI-H460): -4.90 M |
